The term MIC denotes the lowest concentration that inhibits growth of the organism.

Converted amounts (≈) assume the structure as drawn. Where only a bound is given, the exact number is not on record here.

This experiment has as its system M. catarrhalis A894. The experiment is described as follows: Minimal inhibitory concentration (MIC), microdilution method in cation-adjusted Mueller-Hinton Broth (CLSI M7-A7). Type of experiment: cell-based. As to conditions: Moraxella catarrhalis, strain A894. As for the experimental part:
Minimal inhibitory concentrations (MICs; mg/L) were determined in cation-adjusted Mueller-Hinton Broth by a microdilution method following the description given in “Methods for Dilution Antimicrobial Susceptibility Tests for Bacteria that Grow Aerobically”, Approved standard, 7th ed., Clinical and Laboratory Standards Institute (CLSI) Document M7-A7, Wayne, Pa., USA, 2006. All Example compounds were tested against several Gram positive and Gram negative bacteria such as S. aureus, E. faecalis, S. pneumoniae, M. catarrhalis, A. baumanii, E. coli or P. aeruginosa.
In turn, `O=C1CSc2ccc(N3CC(CCCNCc4ccc5ccccc5n4)OC3=O)cc2N1` (racemic) [Example 1, rac-6-(2-oxo-5-{3-[(quinolin-2-ylmethyl)-amino]-propyl}-oxazolidin-3-yl)-4H-benzo[1,4]thiazin-3-one] registered an MIC of 0.5 mg/L (≈ 1.11 µM).
The value for `O=C1CSc2ccc(N3CC(CCCNCc4ccc5ccc(F)cc5n4)OC3=O)cc2N1` (racemic) [Example 2, rac-6-(5-{3-[(7-fluoro-quinolin-2-ylmethyl)-amino]-propyl}-2-oxo-oxazolidin-3-yl)-4H-benzo[1,4]thiazin-3-one] was 0.031 mg/L (≈ 0.0664 µM); that for `O=C1CSc2ccc(N3CC(CCCNCc4cc5ncccc5cc4F)OC3=O)cc2N1` (racemic) [Example 6, rac-6-(5-{3-[(6-fluoro-quinolin-7-ylmethyl)-amino]-propyl}-2-oxo-oxazolidin-3-yl)-4H-benzo[1,4]thiazin-3-one] was not above 0.031 mg/L.
The value for `O=C1CSc2ccc(N3CC(CCCNCc4ccc5c(F)cccc5n4)OC3=O)cc2N1` (racemic) [Example 7, rac-6-(5-{3-[(5-fluoro-quinolin-2-ylmethyl)-amino]-propyl}-2-oxo-oxazolidin-3-yl)-4H-benzo[1,4]thiazin-3-one] was 0.063 mg/L (≈ 0.135 µM); that for `Cc1c(CNCCCC2CN(c3ccc4c(c3)NC(=O)CS4)C(=O)O2)sc2ccccc12` (racemic) [Example 8, rac-6-(5-{3-[(3-methyl-benzo[b]thiophen-2-ylmethyl)-amino]-propyl}-2-oxo-oxazolidin-3-yl)-4H-benzo[1,4]thiazin-3-one] was 0.063 mg/L (≈ 0.135 µM).
The value for `O=C1CSc2ccc(N3CC(CCCNCc4cc5cccnc5s4)OC3=O)cc2N1` (racemic) [Example 9, rac-6-(2-oxo-5-{3-[(thieno[2,3-b]pyridin-2-ylmethyl)-amino]-propyl}-oxazolidin-3-yl)-4H-benzo[1,4]thiazin-3-one] was 0.125 mg/L (≈ 0.275 µM); that for `O=C1CSc2ccc(N3CC(CCCNCc4cc5nccnc5s4)OC3=O)cc2N1` (racemic) [Example 10, rac-6-(2-oxo-5-{3-[(thieno[2,3-b]pyrazin-6-ylmethyl)-amino]-propyl}-oxazolidin-3-yl)-4H-benzo[1,4]thiazin-3-one] was 0.25 mg/L (≈ 0.549 µM).
`O=C1CSc2ccc(N3CC(CCCNCc4cnc5ccccc5c4)OC3=O)cc2N1` (racemic) [Example 11, rac-6-(2-oxo-5-{3-[(quinolin-3-ylmethyl)-amino]-propyl}-oxazolidin-3-yl)-4H-benzo[1,4]thiazin-3-one] had an MIC of 4 mg/L (≈ 8.92 µM). This MIC lies about 16-fold higher than the previous one.
Compound `O=C1CSc2ccc(N3CC(CCCNCc4ccc5ccccc5c4)OC3=O)cc2N1` (racemic) [Example 12, rac-6-(5-{3-[(naphthalen-2-ylmethyl)-amino]-propyl}-2-oxo-oxazolidin-3-yl)-4H-benzo[1,4]thiazin-3-one] showed an MIC of 1 mg/L (≈ 2.23 µM).
On to `O=C1CSc2ccc(N3CC(CCCNCc4ccc5cccnc5c4)OC3=O)cc2N1` (racemic) [Example 13, rac-6-(2-oxo-5-{3-[(quinolin-7-ylmethyl)-amino]-propyl}-oxazolidin-3-yl)-4H-benzo[1,4]thiazin-3-one], for which the MIC came to 0.5 mg/L (≈ 1.11 µM).
The figure for `O=C1CSc2ccc(N3CC(CCCNCc4ccc5ncccc5c4)OC3=O)cc2N1` (racemic) [Example 14, rac-6-(2-oxo-5-{3-[(quinolin-6-ylmethyl)-amino]-propyl}-oxazolidin-3-yl)-4H-benzo[1,4]thiazin-3-one] is 1 mg/L (≈ 2.23 µM).
The figure for `O=C1COc2ccc(N3C[C@@H](CCCNCc4ccc5ccc(F)cc5n4)OC3=O)cc2N1` [Example 3, 6-((R)-5-{3-[(7-fluoro-quinolin-2-ylmethyl)-amino]-propyl}-2-oxo-oxazolidin-3-yl)-4H-benzo[1,4]oxazin-3-one] is not above 0.031 mg/L; for `O=C1COc2ccc(N3C[C@@H](CCCNCc4ccc5ccccc5n4)OC3=O)cc2N1` [Example 4, 6-((R)-2-oxo-5-{3-[(quinolin-2-ylmethyl)-amino]-propyl}-oxazolidin-3-yl)-4H-benzo[1,4]oxazin-3-one] it is 0.063 mg/L (≈ 0.146 µM); for `O=C1CSc2ccc(N3C[C@H](CNCCCc4ccc5ccccc5n4)OC3=O)cc2N1` [Example 5, 6-{(S)-2-oxo-5-[(3-quinolin-2-yl-propylamino)-methyl]-oxazolidin-3-yl}-4H-benzo[1,4]thiazin-3-one] it is not above 0.031 mg/L.
The value for `O=C1CSc2ccc(N3C[C@@H](CCNCc4ccc5ccccc5n4)OC3=O)cc2N1` [Example 15, 6-((R)-2-oxo-5-{2-[(quinolin-2-ylmethyl)-amino]-ethyl}-oxazolidin-3-yl)-4H-benzo[1,4]thiazin-3-one] was not above 0.031 mg/L.
As for `O=C1CSc2ccc(N3C[C@@H](CCNCCc4ccc5ccccc5n4)OC3=O)cc2N1` [Example 16, 6-{(R)-2-oxo-5-[2-(2-quinolin-2-yl-ethylamino)-ethyl]-oxazolidin-3-yl}-4H-benzo[1,4]thiazin-3-one], the MIC is not above 0.031 mg/L.
The value for `COc1ccc2ccc(OC[C@@H]3CCN(C[C@@H]4CN(c5ccc6c(c5)NC(=O)CS6)C(=O)O4)C3)nc2c1` [Example 17, 6-{(R)-5-[(R)-3-(7-methoxy-quinolin-2-yloxymethyl)-pyrrolidin-1-ylmethyl]-2-oxo-oxazolidin-3-yl}-4H-benzo[1,4]thiazin-3-one] was not above 0.031 mg/L; that for `COc1ccc2ccc(OCC3CCN(C[C@@H]4CN(c5ccc6c(c5)NC(=O)CS6)C(=O)O4)CC3)nc2c1` [Example 18, 6-{(R)-5-[4-(7-methoxy-quinolin-2-yloxymethyl)-piperidin-1-ylmethyl]-2-oxo-oxazolidin-3-yl}-4H-benzo[1,4]thiazin-3-one] was 0.5 mg/L (≈ 0.935 µM).
The value for `COc1ccc2ncc(OCC3CN(C[C@@H]4CN(c5ccc6c(c5)OCCO6)C(=O)O4)C3)nc2c1` [Example 19, (R)-3-(2,3-dihydro-benzo[1,4]dioxin-6-yl)-5-[3-(7-methoxy-quinoxalin-2-yloxymethyl)-azetidin-1-ylmethyl]-oxazolidin-2-one] was 0.25 mg/L (≈ 0.522 µM).
The value for `COc1ccc2ncc(OCC3CN(CC[C@@H]4CN(c5ccc6c(c5)NC(=O)CS6)C(=O)O4)C3)nc2c1` [Example 20, 6-((R)-5-{2-[3-(7-methoxy-quinoxalin-2-yloxymethyl)-azetidin-1-yl]-ethyl}-2-oxo-oxazolidin-3-yl)-4H-benzo[1,4]thiazin-3-one] was not above 0.031 mg/L.
Compound `COc1ccc2ncc(OCC3CN(C[C@@H]4CN(c5ccc6c(c5)NC(=O)CS6)C(=O)O4)C3)nc2c1` [Example 21, 6-{(R)-5-[3-(7-methoxy-quinoxalin-2-yloxymethyl)-azetidin-1-ylmethyl]-2-oxo-oxazolidin-3-yl}-4H-benzo[1,4]thiazin-3-one] returned an MIC not above 0.031 mg/L.
The value for `COc1ccc2ncc(OCC3CN(C[C@@H]4CN(c5ccc6c(c5)NC(=O)CO6)C(=O)O4)C3)nc2c1` [Example 22, 6-{(R)-5-[3-(7-methoxy-quinoxalin-2-yloxymethyl)-azetidin-1-ylmethyl]-2-oxo-oxazolidin-3-yl}-4H-benzo[1,4]oxazin-3-one] was not above 0.031 mg/L.
The value for `COc1ccc2ccc(OC3CC(NC[C@@H]4CN(c5ccc6c(c5)NC(=O)CS6)C(=O)O4)C3)nc2c1` (stereo partly drawn) [Example 23, 6-((R)-5-{[3-(7-methoxy-quinolin-2-yloxy)-cyclobutylamino]-methyl}-2-oxo-oxazolidin-3-yl)-4H-benzo[1,4]thiazin-3-one] was not above 0.031 mg/L; that for `O=C1CSc2ccc(N3C[C@@H](CNCCc4ccc5ccccc5n4)OC3=O)cc2N1` [Example 24, 6-{(R)-2-oxo-5-[(2-quinolin-2-yl-ethylamino)-methyl]-oxazolidin-3-yl}-4H-benzo[1,4]thiazin-3-one] was 0.031 mg/L (≈ 0.0713 µM).
The value for `O=C1CSc2ccc(N3C[C@@H](CCCNCCc4ccc5ccccc5n4)OC3=O)cc2N1` [Example 25, 6-{(R)-2-oxo-5-[3-(2-quinolin-2-yl-ethylamino)-propyl]-oxazolidin-3-yl}-4H-benzo[1,4]thiazin-3-one] was 0.125 mg/L (≈ 0.27 µM).
As for `O=C1COc2ccc(N3C[C@@H](CCNCCNc4ccc5ccccc5n4)OC3=O)cc2N1` [Example 26, 6-((R)-2-oxo-5-{2-[2-(quinolin-2-ylamino)-ethylamino]-ethyl}-oxazolidin-3-yl)-4H-benzo[1,4]oxazin-3-one], the MIC came out at 0.25 mg/L (≈ 0.559 µM).
As for `O=C1CSc2ccc(N3C[C@@H](CNCCNCc4ccc5ccccc5n4)OC3=O)cc2N1` [Example 27, 6-[(R)-2-oxo-5-({2-[(quinolin-2-ylmethyl)-amino]-ethylamino}-methyl)-oxazolidin-3-yl]-4H-benzo[1,4]thiazin-3-one], 1 mg/L (≈ 2.16 µM) was the least that counted as inhibitory (MIC). Against the preceding compound, the MIC is about 4-fold higher.
The value for `O=C1CSc2ccc(N3C[C@@H](CN4CCN(Cc5ccc6ccccc6n5)CC4)OC3=O)cc2N1` [Example 28, 6-[(R)-2-oxo-5-(4-quinolin-2-ylmethyl-piperazin-1-ylmethyl)-oxazolidin-3-yl]-4H-benzo[1,4]thiazin-3-one] was 0.063 mg/L (≈ 0.129 µM); that for `COc1cnc2cc(CNCCC[C@H]3CN(c4ccc5c(c4)NC(=O)CS5)C(=O)O3)c(F)cc2n1` [Example 29, 6-((S)-5-{3-[(7-fluoro-2-methoxy-quinoxalin-6-ylmethyl)-amino]-propyl}-2-oxo-oxazolidin-3-yl)-4H-benzo[1,4]thiazin-3-one] was not above 0.031 mg/L.

For the origin of these results see patent US20110195949A1, “2-BENZOTHIOPHENYL- AND 2-NAPHTHYL-OXAZOLIDINONES AND THEIR AZAISOSTERE ANALOGUES AS ANTIBACTERIAL AGENTS” (ACTELION PHARMACEUTICALS LTD., priority 2008, published 2011).
